# What was measured:
# Oryza sativa [1] = experiment: Effect on Oryza sativa (rice) assessed as growth rate at 1 uM relative to control; assay type: organism-based; details: in vivo
# Oryza sativa [2] = experiment: Safener indices, ratio of compound effect of Oryza sativa (rice) growth rate to relieving activity against bensulfuron-methyl induced injury to Oryza sativa growth rate at 1 uM
# Oryza sativa [3] = experiment: Relieving activity against bensulfuron-methyl induced injury to Oryza sativa (rice) assessed as growth rate at 10 uM (Rbv = 46 to 53%); assay type: functional
# Oryza sativa [4] = experiment: Safener indices, ratio of compound effect of Oryza sativa (rice) growth rate to relieving activity against bensulfuron-methyl induced injury to Oryza sativa growth rate at 10 uM
# Oryza sativa [5] = experiment: Relieving activity against bensulfuron-methyl induced injury to Oryza sativa (rice) assessed as growth rate at 1 uM (Rbv = 46 to 53%); assay type: functional
# Oryza sativa [6] = experiment: Relieving activity against bensulfuron-methyl induced injury to Oryza sativa (rice) assessed as growth rate at 0.1 uM (Rbv = 46 to 53%); assay type: functional
# Oryza sativa [7] = experiment: Effect on Oryza sativa (rice) assessed as growth rate at 10 uM relative to control; assay type: organism-based; details: in vivo
# Oryza sativa [8] = experiment: Effect on Oryza sativa (rice) assessed as growth rate at 0.1 uM relative to control; assay type: organism-based; details: in vivo
# [9] = Hydrophobicity, log K of the compound; assay type: physicochemical; details: octanol/water
# Oryza sativa [10] = experiment: Safener indices, ratio of compound effect of Oryza sativa (rice) growth rate to relieving activity against bensulfuron-methyl induced injury to Oryza sativa growth rate at 0.1 uM
Activity (Oryza sativa [1]) [%],Activity (Oryza sativa [7]) [%],Activity (Oryza sativa [8]) [%],log K [9],SMILES,Ratio (Oryza sativa [2]),Activity (Oryza sativa [3]) [%],Ratio (Oryza sativa [4]),Activity (Oryza sativa [5]) [%],Activity (Oryza sativa [6]) [%],Ratio (Oryza sativa [10])
95,54,99,0.456,C[C@@H](NC(=O)Nc1ccccc1C(F)(F)F)c1ccccc1,11,58,42,54,55,10
88,73,98,0.245,CC(=O)c1cccc(NC(=O)N[C@H](C)c2ccccc2)c1,25,62,41,57,50,5
99,100,100,0.704,C[C@H](NC(=O)Nc1cc(Cl)ccc1Cl)c1ccccc1,69,91,82,85,79,56
98,79,101,0.28,C[C@@H](NC(=O)Nc1ccccc1)c1ccccc1,36,77,60,69,56,7
100,100,100,0.667,CCOC(=O)c1ccccc1NC(=O)N[C@H](C)c1ccccc1,25,77,54,63,53,6
99,99,99,0.703,C[C@@H](NC(=O)Nc1cc(Cl)cc(Cl)c1)c1ccccc1,25,69,37,63,58,14
99,100,101,0.688,C[C@@H](NC(=O)Nc1ccc(Cl)cc1Cl)c1ccccc1,29,75,47,65,61,20
98,97,97,0.456,C[C@H](NC(=O)Nc1ccccc1C(F)(F)F)c1ccccc1,40,92,85,70,56,12
99,95,98,0.343,COc1ccccc1NC(=O)N[C@@H](C)c1ccccc1,28,74,46,68,55,9
100,101,99,0.704,C[C@@H](NC(=O)Nc1cc(Cl)ccc1Cl)c1ccccc1,37,77,52,68,64,26
71,36,97,0.489,CCc1cccc(NC(=O)N[C@H](C)c2ccccc2)c1,36,42,29,59,54,8

SMILES,Activity (Oryza sativa [1]) [%],Activity (Oryza sativa [7]) [%],Activity (Oryza sativa [8]) [%],log K [9],Ratio (Oryza sativa [2]),Activity (Oryza sativa [3]) [%],Ratio (Oryza sativa [4]),Activity (Oryza sativa [5]) [%],Activity (Oryza sativa [6]) [%],Ratio (Oryza sativa [10])
Cc1ccc(NC(=O)NC(C)(C)c2ccccc2)cc1 [DAIMURON],89,77,99,0.487,78,79,66,88,74,47

# — ChEMBL document CHEMBL3045406, “Enantioselective Relieving Activity of α-Methylbenzylphenylureas toward Bensulfuron-methyl Injury to Rice (Oryza sativa)” (Biosci Biotechnol Biochem, 1999)
